Measurements reported in paper PMC10653080, “Intermolecular Interactions, Solute Descriptors, and Partition Properties of Neutral Per- and Polyfluoroalkyl Substances (PFAS)” (Environmental Science & Technology, 2023).
Where two headings read alike, the source gives them in different places.

Test: PP-LFER solute descriptor determination from GC retention and partition coefficient data
Type: physicochemical
Settings: for Solute descriptor S (dipolarity/polarizability parameter): final adjusted value, shared within a PFAS group
Text: The GC columns used were, from low to high polarity, HP-5ms Ultra Inert (poly[5% phenyl/95% methyl]siloxane equivalent; Agilent Technologies, Santa Clara, CA), DB-200 (poly[35% trifluoropropyl/65% methyl]siloxane; Agilent Technologies), DB-225ms (poly[50% cyanopropylphenyl/50% methyl]siloxane equivalent; Agilent Technologies), and SolGel-WAX (polyethylene glycol; Trajan, Ringwood, Australia). Column dimensions were all 30 m × 0.25 mm i.d. with a coating thickness of 0.25 μm.
The method for GC retention time measurements follows that of a previous study.[18] Briefly, a 7890A/5975C GC/MS instrument (Agilent Technologies) equipped with an MPS2 autosampler and CIS4 injector (Gerstel, Mülheim an der Ruhr, Germany) was used for all measurements. For each column, isothermal retention times were measured at four temperatures in the range of 30–120 °C to cover all target compounds. The temperature at the injector and transfer line was fixed at 120 °C. The carrier gas was He at a flow rate of 1.2 mL/min. Compounds were introduced into the GC by injecting either headspace (100–250 μL) above the pure compound or solution in acetone (1 μL). Split injections were performed with a split ratio of 20–250. Column dead time (t0) was determined by injecting air and measuring Ar (m/z 40). From the measured retention time (t), the retention factor (k) was calculated as k = (t–t0)/t0. Measurements with t < t0 + 0.1 min were considered too short and discarded. For each column and temperature, k values were obtained for 29–52 PFAS and 29–48 reference compounds.
The standard procedure for solute descriptor determination was as follows. First, the system parameters in eq 1 were calibrated for each column (or partition system) and temperature by MLR using log k (or log K) data and solute descriptors for reference compounds. Dimethylformamide, 1-pentylamine, dimethylsulfoxide, and dodecamethylcyclohexasiloxane (D6) were removed from the log k data sets, because they frequently appeared as outliers (>3 SD) of the PP-LFER model fit. Reference data sets for hexadecane/water partition coefficients (KHxd/w),[21]Kow,[22] and octanol/air partition coefficients (Koa)[23] were taken from the cited references and amended with data for organosilicon compounds.[24],[25] Similar to PFAS, organosilicon compounds have weak van der Waals interaction properties[9] and it may be beneficial to include them in reference data sets. The solute descriptors for PFAS were then back-calculated by using the calibrated PP-LFER equations. Of the five descriptors, V can be calculated from the molecular structure[26] (note: the fragment value for F from Goss et al.[11] was used), and L was available for the PFAS studied.[18] Thus, the left side of eq 2 was known, and MLR was performed to obtain S, A, and B on the right side. [drawing 2] 2 To determine the three descriptors, a minimum of three k and K data are required for a given PFAS compound. The data used here were: k measured for 60 PFAS in this study, KHxd/w for 21 PFAS,[5]Kow for 12 PFAS (see the Results and Discussion section), and Koa for 3 PFAS.[11]
Key to the accurate determination of the polar interaction descriptors is the availability of K data for partition systems with water as a partition phase because water is a strong H-bond donor and acceptor phase and thus the corresponding K values are sensitive to the H-bonding properties of the solute.[27] In particular, at least one solvent/water or air/water partition coefficient is required to determine B because there is no commonly used GC phase that is a significant H-bond donor. In the data set, KHxd/w is sensitive to both A and B and Kow is sensitive to B. However, KHxd/w and Kow data are not available for all PFAS. To increase the number of PFAS for which descriptors can be determined, the following assumptions were made. […]

[1] = 25 °C, updated in the iterative calculation
[2] = difference of descriptor values

Row | Compound | Solute descriptor L (logarithmic hexadecane/air partition coefficient, KHxd/air) | Solute descriptor S (dipolarity/polarizability parameter) | Solute descriptor L (logarithmic hexadecane/air partition coefficient, KHxd/air) [1] | A value higher than perfluorinated counterpart, perfluorooctane [2] | L value higher than perfluorinated counterpart, perfluorooctane [2]
1 | CCN(CCO)S(=O)(=O)C(F)(F)C(F)(F)C(F)(F)C(F)(F)C(F)(F)C(F)(F)C(F)(F)C(F)(F)F [EtFOSE, N-Ethylperfluorooctanesulfonamidoethanol] | 6.253 | 1.00 | – | – | –
2 | OCc1ccc(CCC(F)(F)C(F)(F)C(F)(F)C(F)(F)C(F)(F)C(F)(F)F)cc1 [6:2 FTBnOH, 4-(1H,1H,2H,2H-Perfluorooctyl)benzyl alcohol] | – | 0.75 | 6.656 | – | –
3 | FC(F)C(F)(F)C(F)(F)C(F)(F)C(F)(F)C(F)(F)C(F)(F)C(F)F [1,8-DHPFO, 1H,8H-Perfluorooctane] | – | 0.38 | 2.130 | 0.24 | 0.78
4 | C=CC(F)(F)C(F)(F)C(F)(F)C(F)(F)F [4:2 FTO, 1H,1H,2H-Perfluoro-1-hexene] | – | 0.11 | 1.451 | – | –
5 | FC(F)(F)C(F)(F)C(F)(F)N(C(F)(F)C(F)(F)C(F)(F)F)C(F)(F)C(F)(F)C(F)(F)F [PFTPrA, Perfluorotripropyl amine] | – | -0.26 | 1.521 | – | –
6 | FC(F)(F)C(F)(F)C(F)(F)C(F)(F)I [PFBI, Perfluorobutyl iodide] | – | 0.07 | 1.939 | – | –
7 | FC(F)(F)C(F)(F)C(F)(F)C(F)(F)C(F)(F)C(F)(F)C(F)(F)C(F)(F)CCI [8:2 FTI, 1H,1H,2H,2H-Perfluorodecyl iodide] | – | 0.32 | 4.455 | – | –
8 | FC(OC(F)(F)C(F)(OC(F)(F)C(F)(OC(F)(F)C(F)(OC(F)(F)C(F)(F)C(F)(F)F)C(F)(F)F)C(F)(F)F)C(F)(F)F)C(F)(F)F (stereo not shown) [FE-E4, 1,1,1,2,4,4,5,7,7,8,10,10,11,13,13,14,14,15,15 ,15-Eicosafluoro-5,8,11-tris(trifluoromethyl)-3,6,9,12-tetraoxapentadecane] | 2.542 | -0.55 | – | – | –
9 | C=CC(F)(F)C(F)(F)C(F)(F)C(F)(F)C(F)(F)C(F)(F)C(F)(F)C(F)(F)C(F)(F)C(F)(F)F [10:2 FTO, 1H,1H,2H-Perfluoro-1-dodecene] | 3.031 | 0.11 | – | – | –
10 | C=CCOCC(F)(F)C(F)(F)C(F)(F)C(F)(F)C(F)(F)C(F)(F)C(F)(F)F [AFOE, Allyl 1H,1H-perfluorooctyl ether] | – | 0.30 | 3.584 | – | –
11 | NS(=O)(=O)C(F)(F)C(F)(F)C(F)(F)C(F)(F)C(F)(F)C(F)(F)F [PFHxSA, Perfluorohexanesulfonamide] | – | 0.96 | 4.189 | – | –
12 | OCCC(F)(F)C(F)(F)C(F)(F)C(F)(F)C(F)(F)C(F)(F)C(F)(F)C(F)(F)C(F)(F)C(F)(F)F [10:2 FTOH, 1H,1H,2H,2H-Perfluorododecan-1-ol] | 4.117 | 0.35 | – | – | –
13 | O=S(=O)(F)C(F)(F)C(F)(F)C(F)(F)C(F)(F)F [PFBSF, Perfluorobutanesulfonyl fluoride] | – | 0.16 | 1.278 | – | –
